Data taken from US20210276960A1, “INHIBITORS OF TISSUE TRANSGLUTAMINASE 2 (TG2) AND USES THEREOF” (Northwestern University, priority 2020, published 2021).

Assays:
[1] = system: integrin β1 on SKOV3 cells; assay: Flow cytometry of surface integrin β1, SKOV3; format: cell-based; settings: serial concentrations
Procedure: FIG. 32. Flow cytometry analysis of integrin 31 plasma membrane expression. […] OC cells were pre-incubated 1 h with serial dilutions of MT4 (as compared to TG53- and DMSO-treated cells), and left to attach for on either plastic (P) or fibronectin (FN) coated 6-well plates. Anti-integrin 31 antibodies (0.5 μg/mL) were used as control.

Solubility assay = format: physicochemical; settings: pH=7.4 PBS buffer, 2% DMSO
Procedure: Solubility was measured in a 384-well plate using a Synergy HTX plate reader. Starting with a 50 mM DMSO stock solution of test compounds, dilutions were made from 1 to 500 μM final concentrations using acetonitrile, keeping the final DMSO concentration at 2%. UV absorption was measured at 254 nm and absorbance versus concentration was plotted to give a standard curve. A DMSO stock of test compound was also diluted with pH=7.4 PBS buffer to give a final concentration of 250 μM containing 2% DMSO. This mixture was stirred on a plate shaker for 1 hr after which it was centrifuged at 2500 rpm for 3 min. 50 μL of the supernatant was removed, transferred to a 384-well plate, and the UV absorbance at 254 nm was measured. Absorbance of the test compound in PBS buffer was analyzed with the standard curve to determine solubility.

[2] = system: FAK phosphorylation in SKOV3 cells; assay: Western blotting, FAK phosphorylation dose response; format: cell-based; settings: increasing doses (TG53 8 to 16 μM), 2 hours after adhesion to FN
Procedure: FIG. 33. Dose response effects induced by TG2-FN inhibitors on FAK phosphorylation.
Lysates were separated by SDS-PAGE, transferred onto PVDF membranes (Bio-Rad), incubated with primary and secondary antibodies and developed by using SuperSignal™ West Femto Maximum Sensitivity Substrate and Pierce™ ECL Western Blotting Substrate, respectively (Thermo Scientific). Images were obtained by using the ImageQuant LAS 4000 mini-imager (GE Healthcare, Pittsburgh, Pa.). Densitometry analysis was performed using Quantity One software (Bio-Rad) and results were normalized to GAPDH loading controls. DMSO 0 min time point was considered as 1 for comparative analysis.

[3] = molecular target: T1, His-tagged TG2 / biotinylated FN42 interaction (Homo sapiens, UniProt P21980); assay: ELISA of the TG2-FN interaction; format: binding
T1 construct: made in house
T1 sequence (P21980 1-687): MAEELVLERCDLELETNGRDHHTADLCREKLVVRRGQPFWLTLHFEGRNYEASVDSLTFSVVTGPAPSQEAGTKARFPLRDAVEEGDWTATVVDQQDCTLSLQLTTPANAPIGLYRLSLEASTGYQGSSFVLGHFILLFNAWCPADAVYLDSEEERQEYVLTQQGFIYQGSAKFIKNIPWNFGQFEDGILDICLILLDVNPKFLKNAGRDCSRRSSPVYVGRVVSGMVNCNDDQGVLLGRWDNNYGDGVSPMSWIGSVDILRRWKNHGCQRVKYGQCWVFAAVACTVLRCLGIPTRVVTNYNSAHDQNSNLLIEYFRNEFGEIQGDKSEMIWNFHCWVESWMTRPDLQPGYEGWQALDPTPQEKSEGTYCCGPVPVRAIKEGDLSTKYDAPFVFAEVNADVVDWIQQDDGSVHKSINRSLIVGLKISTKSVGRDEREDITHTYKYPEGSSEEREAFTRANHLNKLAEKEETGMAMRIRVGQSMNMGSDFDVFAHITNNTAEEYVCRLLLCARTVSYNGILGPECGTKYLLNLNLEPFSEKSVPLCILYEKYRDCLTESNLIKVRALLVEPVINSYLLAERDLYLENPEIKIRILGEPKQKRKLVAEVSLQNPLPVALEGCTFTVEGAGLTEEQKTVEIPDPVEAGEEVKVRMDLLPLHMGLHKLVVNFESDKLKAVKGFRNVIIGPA
Procedure: Confirmation using ELISA: An independent ELISA validated inhibition of TG2/FN complex formation by SMIs^11. The ELISA assay measured the binding between His6-TG2 captured to the wells by anti-His antibodies and biotinylated FN42 detectable with streptavidin-HRP (FIG. 12A). […] Selected compounds (at concentrations between 5 and 10 μM) inhibited the ELISA signal by 29.7% to 69.5%^11.
ELISA measured the interaction between recombinant His tagged TG2 (rTG2-His) and the biotinylated 42 kD fragment of FN (FN42) which were expressed and purified, as previously described (Yakubov et al., 2014). Briefly, a mixture of 10 nMrTG2-His and selected SMIs or DMSO was added to 96 well plates pre-coated with monoclonal anti-His antibody (Roche, Indianapolis, Ind.; 1:6000). The mixture was incubated for 1 h at RT with 5 nM biotinylated FN42. After washing, wells were incubated with streptavidin-HRP (Cell Signaling, #3999; 1:2000). The reaction was developed with 3,3′,5,5′tetramethylbenzidine (TMB) substrate (BD Biosciences, #555214) and the optical density at […] was measured by using a BioTek microplate reader (Winooski, Vt., USA). Data shown are means±SEM of two independent experiments (n=6).

OVCAR5 cells = assay: TIRF microscopy of β1 integrin distribution; format: cell-based, human; settings: 1 μM or 5 μM, 1 h pre-treatment
Procedure: For assessing the potential effect of SMIs on 01 integrin distribution at the interface between cells and the FN matrix, OVCAR5 cells were treated for 1 h with either TG53 or MT-4 in serum-free media at 37° C., and then seeded onto FN-coated glass bottom microwell dishes (MatTek Corp. Ashland, Mass.) for 45 minutes at 37° C. Samples were fixed in PFA and blocked in 1% BSA. 01 integrin receptors were detected by using anti-01 integrin antibodies (clone P5D2, Chemicon, #MAB1959, 1:100) and AlexaFluor 568-conjugated anti-mouse secondary antibodies, while actin was labeled using Alexa Fluor 488-conjugated phalloidin. Cells were imaged with a Nikon Ti2 Microscope equipped with a Photometrics Prime 95B camera using a Nikon Plan Apo 100×1.49 NA TIRF objective.

SMILES	β1 integrin receptors at the plasma membrane [1]	solubility at 1 h (Solubility assay; aqueous buffer, kinetic from dmso stock) [µM]	FAK phosphorylation [2]	inhibition of rTG2-FN42 interaction relative to TG53 ([3]; 10 μM)	β1 integrin distribution at the interface with FN (OVCAR5 cells)	solubility at 1 h (Solubility assay) [µM]	binding mode (Lineweaver-Burk plot analysis) [3]	inhibition of ELISA signal ([3]; 5 μM) [%]	Ki ([3]; saturation curves of FN42 with increasing TG53, read-out: inhibition constant Ki) [µM]
Cc1cc(N(C)C)nc(Nc2ccc(NC(=O)Cc3ccccc3)cc2)n1 [MT-4]	did not show significant downregulation	91.5	dose-dependent inhibition	slightly more potently than TG53	enhanced 31 integrin transposition towards the extreme edge of the cell	–	–	–	–
COc1ccc(Cl)cc1C(=O)Nc1ccc(Nc2nc(C)cc(N(C)C)n2)cc1 [TG53]	did not show significant downregulation	–	attenuated	–	modest displacement of integrin receptors towards the cell perimeter	<5	competes for the same binding site in TG2 as FN42	65	4.15
